The test system of data set [1] is H1/Cal HA (H1N1 A/California/07/2009). Type of data set: binding, influenza A virus.
Data set [2] addresses H1/NCa HA (H1N1 A/New Caledonia/20/1999). Type of data set: binding, influenza A virus.
For data set [3], the system named is H5/Viet HA (H5N1 A/Vietnam/1203/2004). In kind it is binding, influenza A virus.
The subject of data set [4] is H1/Cal HA (A/California/07/2009 (H1N1)). Type of data set: binding, influenza A virus.
Data set [5] deals with H1/NCa HA (A/New Caledonia/20/1999 (H1N1)). Type of data set: binding, influenza A virus.
For data set [6], the system named is H5/Viet HA (A/Vietnam/1203/2004 (H5N1)). In kind it is binding, influenza A virus.
Data set [7] concerns H1N1 A/Brisbane/59/2007 (H1/Bri) HA. In kind it is biochemical, influenza A virus. Conditions: pH 5.25.
For data set [8], the target named is T1, H1/PR8 HA (A/Puerto Rico/8/1934 (H1N1)) (Influenza A virus, UniProt P03452).
T1 construct: The HA ectodomain was expressed using a baculovirus expression system in Sf9 cells; gp67 signal peptide (N); thrombin site (C); BirA biotinylation site (C); trimerization domain (C); His-tag (C); made in house; host or cells: Sf9 cells (baculovirus)
Kind of data set: Trypsin susceptibility (TS) assay. As to conditions: pH 5.0; 50 μM CP1 or 10 μM CR9114 Fab, 5 μM HA. In kind it is biochemical.

The target of data set [9] is H1N1 A/duck/Alberta/345/1976 HA. Type of data set: binding, influenza A virus.
Data set [10] deals with H1N1 A/Solomon Islands/3/2006 HA. Type of data set: binding, influenza A virus.
Another data set deals with H2N2 A/Adachi/2/1957 HA. In kind it is binding, influenza A virus.
The target in data set [11] is H6N2 A/turkey/Massachusetts/3740/1965 HA. In kind it is binding, influenza A virus.
The target in data set [12] is H9N2 A/turkey/Wisconsin/1/1966 HA. In kind it is binding, influenza A virus.
The target of data set [13] is H11N6 A/duck/England/1/1956 HA. Type of data set: binding, influenza A virus.
Data set [14] has as its target H12N5 A/duck/Alberta/60/1976 HA. Type of data set: binding, influenza A virus.
The target of data set [15] is H16N3 A/black-headed gull/Sweden/4/1999 HA. In kind it is binding, influenza A virus.
For data set [16], the target named is H3N2 A/Hong Kong/1/1968 HA (Influenza A virus, UniProt Q91MA7). In kind it is binding.
In data set [17] the target is H3N2 A/Victoria/361/2011 HA. In kind it is binding, influenza A virus.
Data set [18] has as its target H4N6 A/duck/Czechoslovakia/1956 HA (Influenza A virus, UniProt P19696). In kind it is binding.
Data set [19] has as its target H7N7 A/Netherlands/219/2003 HA. Type of data set: binding, influenza A virus.
Data set [20] addresses H10N7 A/chicken/Germany/N/1949 HA (Influenza A virus, UniProt P12581). In kind it is binding.
For data set [21], the target named is H14N5 A/mallard/Astrakhan/263/1982 HA (Influenza A virus, UniProt P26136). In kind it is binding.
In data set [22] the target is H15N9 A/shearwater/W. Australia/2576/79 HA. Type of data set: binding, influenza A virus.
For data set [23], the target named is B/Brisbane/33/2008 HA (Victoria lineage). Type of data set: binding, influenza B virus.
Data set [24] deals with B/Massachusetts/02/2012 HA (Yamagata lineage). In kind it is binding, influenza B virus.
In data set [25] the test system is group 1 H1/Cal, H1/NCa, and H5/Viet HAs. Type of data set: binding, influenza A virus.
Data set [26] shares this test system. In kind it is binding, influenza A virus. As to conditions: for IC50: read-out: IC50 in AlphaLISA (range over HAs). For orientation: In Alpha technology, singlet oxygen from a donor bead excites a nearby acceptor bead.
Data set [27] concerns group 2 or influenza B HAs. Type of data set: binding, influenza A and B viruses.
Data set [28] relates to H5/Viet virus (A/Vietnam/1203/2004 (H5N1)).
Data set [29] in a line: In vitro cell permeability assay. Conditions: for efflux ratio: LLC-PK1, Efflux ratio BA/AB; for efflux ratio / Papp B→A: LLC-Parent; for Papp B→A: LLC-PK1, Papp BA, basolateral to apical.
Data set [30] in a line: In vitro cell permeability / P-gp substrate assay. Conditions: for Papp A→B: LLC-PK1, Papp AB, LLC-MDR1, apical to basolateral; for Papp B→A: LLC-PK1, Papp BA, LLC-MDR1, basolateral to apical.
Data set [31] relates to HAs from group 2 and influenza B viruses. In kind it is binding, influenza A and B viruses.

Values joined by “and” are separate entries in the source; they are usually repeats but may differ in a detail not shown here. Equal values may be shown once. Read-outs that look alike come from different tables or passages of the source.

T1 sequence (P03452 18-528 limits assumed): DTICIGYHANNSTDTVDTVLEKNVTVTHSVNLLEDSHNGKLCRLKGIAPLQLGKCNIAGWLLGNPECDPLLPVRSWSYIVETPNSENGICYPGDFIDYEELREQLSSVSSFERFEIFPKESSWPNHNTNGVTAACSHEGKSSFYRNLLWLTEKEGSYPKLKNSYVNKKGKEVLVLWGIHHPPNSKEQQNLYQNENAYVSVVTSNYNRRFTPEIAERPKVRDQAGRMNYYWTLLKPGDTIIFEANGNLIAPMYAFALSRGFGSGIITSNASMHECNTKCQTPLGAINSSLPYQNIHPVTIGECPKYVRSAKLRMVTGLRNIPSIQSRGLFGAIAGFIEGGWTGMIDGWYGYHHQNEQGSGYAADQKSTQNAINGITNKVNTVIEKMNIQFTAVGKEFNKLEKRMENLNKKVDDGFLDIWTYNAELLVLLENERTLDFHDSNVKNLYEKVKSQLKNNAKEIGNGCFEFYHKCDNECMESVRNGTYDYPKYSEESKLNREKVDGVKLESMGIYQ
H4N6 A/duck/Czechoslovakia/1956 HA, sequence (P19696 17-527 limits assumed): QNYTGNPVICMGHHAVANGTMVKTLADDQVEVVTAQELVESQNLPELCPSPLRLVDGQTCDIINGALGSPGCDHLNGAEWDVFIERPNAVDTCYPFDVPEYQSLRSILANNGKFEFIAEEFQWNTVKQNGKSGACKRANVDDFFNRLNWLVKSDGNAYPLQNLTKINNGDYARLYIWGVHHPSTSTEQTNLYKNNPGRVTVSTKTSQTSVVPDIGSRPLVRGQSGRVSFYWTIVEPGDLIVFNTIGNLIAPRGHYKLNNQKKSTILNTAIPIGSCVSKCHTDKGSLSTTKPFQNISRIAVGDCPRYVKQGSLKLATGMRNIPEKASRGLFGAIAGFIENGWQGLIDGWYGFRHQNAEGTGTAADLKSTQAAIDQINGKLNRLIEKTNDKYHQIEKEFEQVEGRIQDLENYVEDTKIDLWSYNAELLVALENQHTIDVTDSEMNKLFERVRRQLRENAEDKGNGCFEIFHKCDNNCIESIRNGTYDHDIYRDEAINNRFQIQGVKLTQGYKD
H10N7 A/chicken/Germany/N/1949 HA, sequence (P12581 17-524 limits assumed): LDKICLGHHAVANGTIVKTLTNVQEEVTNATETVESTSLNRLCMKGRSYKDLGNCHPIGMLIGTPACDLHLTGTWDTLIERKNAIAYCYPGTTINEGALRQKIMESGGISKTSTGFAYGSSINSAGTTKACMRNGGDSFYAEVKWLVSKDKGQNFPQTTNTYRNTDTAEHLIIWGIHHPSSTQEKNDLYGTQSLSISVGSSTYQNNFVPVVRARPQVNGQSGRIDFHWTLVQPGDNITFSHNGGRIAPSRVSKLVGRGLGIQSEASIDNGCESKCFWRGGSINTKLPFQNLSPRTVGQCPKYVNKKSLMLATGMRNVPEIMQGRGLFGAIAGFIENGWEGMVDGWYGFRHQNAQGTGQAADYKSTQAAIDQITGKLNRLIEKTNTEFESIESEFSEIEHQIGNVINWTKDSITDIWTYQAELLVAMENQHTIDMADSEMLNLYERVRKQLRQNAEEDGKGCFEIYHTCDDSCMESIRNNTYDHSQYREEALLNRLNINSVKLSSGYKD
H3N2 A/Hong Kong/1/1968 HA, sequence (Q91MA7 17-530 limits assumed): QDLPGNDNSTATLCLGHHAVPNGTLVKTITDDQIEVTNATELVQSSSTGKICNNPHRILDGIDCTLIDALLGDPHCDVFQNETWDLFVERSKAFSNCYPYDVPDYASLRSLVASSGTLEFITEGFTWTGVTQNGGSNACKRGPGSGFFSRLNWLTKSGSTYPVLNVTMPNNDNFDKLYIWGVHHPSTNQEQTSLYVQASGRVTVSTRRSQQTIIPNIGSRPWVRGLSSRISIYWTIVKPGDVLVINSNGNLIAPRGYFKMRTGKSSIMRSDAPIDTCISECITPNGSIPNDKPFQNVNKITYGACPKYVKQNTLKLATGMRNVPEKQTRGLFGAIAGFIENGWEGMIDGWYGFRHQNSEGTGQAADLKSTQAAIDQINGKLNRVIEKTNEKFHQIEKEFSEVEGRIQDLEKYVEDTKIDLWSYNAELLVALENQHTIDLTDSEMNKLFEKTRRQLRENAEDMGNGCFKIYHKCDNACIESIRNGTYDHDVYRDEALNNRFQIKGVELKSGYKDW
H14N5 A/mallard/Astrakhan/263/1982 HA, sequence (P26136 18-531 limits assumed): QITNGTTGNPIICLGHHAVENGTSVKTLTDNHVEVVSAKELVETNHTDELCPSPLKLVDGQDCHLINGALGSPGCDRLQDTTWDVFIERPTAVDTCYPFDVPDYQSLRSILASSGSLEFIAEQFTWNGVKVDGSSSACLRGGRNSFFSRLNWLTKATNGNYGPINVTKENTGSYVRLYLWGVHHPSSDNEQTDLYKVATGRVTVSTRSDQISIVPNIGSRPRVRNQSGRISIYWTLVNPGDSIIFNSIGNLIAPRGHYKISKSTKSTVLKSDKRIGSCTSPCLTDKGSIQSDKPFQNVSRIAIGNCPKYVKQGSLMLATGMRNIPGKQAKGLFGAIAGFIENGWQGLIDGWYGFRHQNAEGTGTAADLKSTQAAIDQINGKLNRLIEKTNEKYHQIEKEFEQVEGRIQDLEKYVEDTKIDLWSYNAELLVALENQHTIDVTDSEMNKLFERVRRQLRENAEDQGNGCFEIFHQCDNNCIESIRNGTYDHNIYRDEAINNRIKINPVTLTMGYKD

For `CSCC[C@@H]1NC(=O)CNC(=O)CNC(=O)[C@H](C)NC(=O)[C@H](C(C)C)NC(=O)CNC(=O)[C@H](CC(C)C)NC(=O)[C@@H]2CCCN2C(=O)[C@H](CC(=O)O)NC(=O)[C@H](CCC(=O)O)NC(=O)[C@H](Cc2ccc(O)cc2)NC(=O)[C@H](CC(C)C)NC(=O)[C@H](CO)NC(=O)[C@H](C(C)C)NC(=O)[C@H]2CCCN2C(=O)[C@@H]2CCCN2C(=O)[C@H](Cc2ccc(O)cc2)NC(=O)[C@H](C(C)C)NC(=O)CNC1=O` [CP1], the “improvement in binding affinity versus linear peptide LP1” value in data set [1] was 60 fold. Also, the Kd (commonly a measure of binding affinity in units of concentration) in data set [1] (read-out: KD) is 54 nM; in data set [1] (read-out: KD by SPR), 50 nM; in data set [2] it was 23 nM; in data set [9] it was 101 nM; in [10], 128 nM; at H2N2 A/Adachi/2/1957 HA it was greater than 1000 nM. For the same compound, the equilibrium dissociation constant (Kd) was 91 nM in data set [11], greater than 1000 nM in data set [12], 2300 nM in [13] and 1100 nM in data set [15]. Moreover, the “faster koff rate against H5 versus H1 HA” value in [3] is listed as 14 fold. The IC50 (in general, the concentration needed to halve the response being measured) in data set [4] is 55 nM; in data set [5] it was 52 ± 20 nM; in data set [6] it was 840 ± 130 nM; in [7] it was 49 nM and 50 nM; in data set [26], 52 to 840 nM. Further, the “Protection of HA from low pH-induced conversion to trypsin-susceptible conformation” value in [8] is “inhibits the conversion of H1/PR8 HA to the post-fusion conformation”. Moreover, the KD entry in data set [14], in [16], in data set [17], in data set [18], in [19] and in data set [20] was “N.B” each time. The KD entry in [21], in [22], in data set [23] and in [24] was “N.B” each time. The “half-life / residence time t1/2 (range over HAs)” value in data set [25] was 5 to 46 s. Also, in [25], the “slower dissociation (koff) compared to LP1” value is reported as 9- to 180 fold. Besides, in data set [26], the “improvement in binding in AlphaLISA versus LP1” value is 60- to 440 fold. The “Binding against group 2 or influenza B HAs in SPR” value in data set [27] is “no binding”. For the same compound, the “Neutralization activity against H5N1 virus (in words)” value in [28] is listed as “modest activity”. For the same compound, the recovery in data set [29] (LLC-PK1) came to 92.9%. Also, the efflux ratio (in general, the permeability from basolateral to apical divided by that in the opposite direction, in the common usage) in [29] (+ 5 µM GF120918) was 2.97; in [29] (no inhibitor), 2.55; in [30] (LLC-PK1, Efflux ratio BA/AB, LLC-MDR1, + 5 µM GF120918) it was 1.36; in data set [30] (LLC-PK1, Efflux ratio BA/AB, LLC-MDR1, no inhibitor), 1.57; in data set [30] (LLC-PK1, Efflux ratio, text: LLC-parent and LLC-MDR1, in the presence and absence of elacridar (GF120918)), less than 2. Moreover, the apparent permeability from basolateral to apical (Papp B→A) (commonly how fast a substance crosses the layer from the basolateral side) was determined as 0.22 ± 0.12 ×10⁻⁶ cm/s in data set [29] (+ 5 µM GF120918), 0.19 ± 0.09 ×10⁻⁶ cm/s in data set [29] (no inhibitor), 0.32 ± 0.02 ×10⁻⁶ cm/s in [30] (+ 5 µM GF120918) and 0.33 ± 0.08 ×10⁻⁶ cm/s in data set [30] (no inhibitor). Besides, the Papp A→B (usually how fast a substance crosses the layer from the apical side) in [29] (LLC-PK1, pH 7.4) was 0.07 ± 0.01 ×10⁻⁶ cm/s; in [30] (+ 5 µM GF120918) it was 0.23 ± 0.04 ×10⁻⁶ cm/s; in data set [30] (no inhibitor), 0.21 ± 0.03 ×10⁻⁶ cm/s.
Take `CSCC[C@@H]1NC(=O)CNC(=O)CNC(=O)[C@H](C)NC(=O)[C@H](C(C)C)NC(=O)CNC(=O)[C@H](CC(C)C)NC(=O)[C@@H]2CCCN2C(=O)[C@H](CC(=O)O)NC(=O)[C@H](CCC(=O)O)NC(=O)[C@H](Cc2ccc(O)cc2)NC(=O)[C@H](CC(C)C)NC(=O)[C@H](CO)NC(=O)[C@H](C(C)C)NC(=O)[C@H]2CCCN2C(=O)CNC(=O)[C@H](Cc2ccc(O)cc2)NC(=O)[C@H](C(C)C)NC(=O)CNC1=O` [CP4]: the half-inhibitory concentration (IC50) in data set [4] stood at 100 nM; in data set [5] it was 75 ± 10 nM; in data set [6], 760 ± 86 nM; in data set [7] it was 390 ± 40 nM. Besides, the “half-life / residence time t1/2 (range over HAs)” value in data set [25] lay in the range of 2 to 16 s. Moreover, the “koff (range over HAs)” value in [25] is listed as 0.04–0.32. The “Neutralization activity against H5N1 virus (in words)” value in data set [28] is listed as “complete abolishment of neutralization activity”.
As to `CSCC[C@H](NC(=O)CNC(=O)CNC(=O)[C@H](C)NC(=O)[C@@H](NC(=O)CNC(=O)[C@H](CC(C)C)NC(=O)[C@@H]1CCCN1C(=O)[C@H](CC(=O)O)NC(=O)[C@H](CCCNC(=N)N)NC(=O)[C@H](Cc1ccc(O)cc1)NC(=O)[C@H](CC(C)C)NC(=O)[C@H](CO)NC(=O)[C@@H](NC(=O)CCC(=O)O)C(C)C)C(C)C)C(=O)NCC(=O)N[C@H](C(=O)N[C@@H](Cc1ccc(O)cc1)C(N)=O)C(C)C` [LP1], the IC50 in [4] is 11500 ± 2500 nM; in data set [5] it was 22900 ± 4140 nM; in data set [6], 47900 ± 3770 nM; in data set [26], 11000 to 47000 nM. For the same compound, the Kd in data set [25] (read-out: KD by SPR (range over HAs)) was in the range of 3000 to 7000 nM. For the same compound, the “Binding to HAs of group 2 and influenza B viruses” value in data set [31] is “no binding was observed”.

(Values after PMC12714728, “VHH antibody loop guides design of a synthetic macrocyclic peptide that potently blocks influenza virus membrane fusion” (npj Viruses, 2025).)
